Measured values taken from the NIST ThermoML archive (doi:10.1016/j.tca.2014.07.025).

Experiment: mn = molality of the nth substance listed, in mol/kg
Conditions: 100 kPa, Liquid; for speed of sound: Frequency=3 MHz, Sing-around technique in a fixed-path interferometer; for mass density: Vibrating tube method

NCC(=O)NCC(=O)O [glycylglycine] + O
Conditions | mass density, 305.15 K [kg/m3] | mass density, 310.15 K [kg/m3] | mass density, 315.15 K [kg/m3] | speed of sound, 305.15 K [m/s] | speed of sound, 310.15 K [m/s] | speed of sound, 315.15 K [m/s]
m1 = 0.00206 | 995.2 | 993.513 | 991.618 | 1514.1 | 1524.1 | 1532.4
m1 = 0.00597 | 995.41 | 993.721 | 991.824 | 1514.8 | 1524.7 | 1532.9
m1 = 0.00797 | 995.517 | 993.827 | 991.929 | 1515.2 | 1525.1 | 1533.5
m1 = 0.01021 | 995.637 | 993.946 | 992.047 | 1515.4 | 1525.2 | 1533.6
m1 = 0.02015 | 996.168 | 994.474 | 992.568 | 1515.8 | 1525.6 | 1534
m1 = 0.05037 | 997.778 | 996.073 | 994.147 | 1517.8 | 1527.5 | 1535.8
m1 = 0.1008 | 1000.45 | 998.723 | 996.764 | 1521.6 | 1531.2 | 1539.4
m1 = 0.2021 | 1005.75 | 1003.99 | 1001.97 | 1529.5 | 1538.8 | 1546.9
m1 = 0.2959 | 1010.58 | 1008.79 | 1006.71 | 1536 | 1545.4 | 1553
m1 = 0.4 | 1015.86 | 1014.03 | 1011.88 | 1542.5 | 1551.6 | 1559.3
